For orientation: pIC50 means the negative decadic logarithm of the IC50, by convention in mol/L. In general, solubility refers to the concentration that dissolves in the medium under given conditions. A higher solubility goes with much dissolved substance.

Molecules are shown by their SMILES. pIC50: −log10 of the molar value. In brackets after ≈: the same amount, converted by molar mass. Numbered stars: 1 amine (or outer) side, 2 acyl side, 3 side chain; on linkers, the order of the positions; unused ones are H or OH. Side chains are listed from the residue outwards. Peptide text beside a SMILES is read from it. * marks the point of attachment. C20 diacid = O=C(O)CCCCCCCCCCCCCCCCCCC(=O)*; C18 diacid = O=C(O)CCCCCCCCCCCCCCCCC(=O)*; γGlu = O=C(O)[C@H](CCC(=O)[*:2])N[*:1]; AEEA = NCCOCCOCC(=O)O

Here are results for five compounds from patent US9593149B2, “Amylin and calcitonin receptor agonist” (Novo Nordisk A/S, priority 2014, dated 2017).

Data set [1] has as its target T1, rat calcitonin receptor (Rattus norvegicus, UniProt P32214).
T1 construct: expressed in transfected cells; host or cells: BHK tk'ts 13 (transient, FuGENE 6)
T1 sequence (P32214 25-479 isoform P32214-2 limits assumed): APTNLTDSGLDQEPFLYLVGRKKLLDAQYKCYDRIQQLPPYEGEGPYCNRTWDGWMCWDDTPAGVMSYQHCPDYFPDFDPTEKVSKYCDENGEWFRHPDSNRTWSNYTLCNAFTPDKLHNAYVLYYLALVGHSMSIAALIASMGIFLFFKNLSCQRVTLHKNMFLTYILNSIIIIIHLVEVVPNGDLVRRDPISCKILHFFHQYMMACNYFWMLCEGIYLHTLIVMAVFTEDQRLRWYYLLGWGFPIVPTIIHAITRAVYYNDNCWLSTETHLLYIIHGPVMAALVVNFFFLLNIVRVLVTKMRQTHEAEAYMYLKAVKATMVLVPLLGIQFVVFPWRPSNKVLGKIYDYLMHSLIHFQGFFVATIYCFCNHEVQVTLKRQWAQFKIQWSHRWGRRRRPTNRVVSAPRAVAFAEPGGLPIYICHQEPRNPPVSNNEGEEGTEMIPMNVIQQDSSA
The data set is described as follows: Assay (VIII) binding to the rat calcitonin receptor. Conditions: membranes; read-out: rCT-R binding IC50. In a few lines: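 Competition binding on membranes from BHK tk'ts 13 cells transiently transfected with rat calcitonin receptor, otherwise run as the human receptor assay. Plates washed in cold HBSS, lysed in 0.1 M NaOH/1% SDS and scintillation-counted. IC50 from one-site competition fit as affinity measure.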

Data set [2] is described as follows: Assay (IV) determination of solubility. It counts as physicochemical. Here is the method:
Assay (IV)—Determination of Solubility
The mimylin peptide was dissolved in water at ˜500 nmol/ml and mixed 1:1 with a series of buffers (100 mM glycylglycine pH 3.0, 100 mM glycylglycine pH 4.0, 100 mM glycylglycine pH 5.0, 100 mM bistrispropane pH 6.0, 100 mM bistrispropane pH 6.5, 100 mM bistrispropane pH 7.0, 100 mM bistrispropane pH 7.5, 100 mM bistrispropane pH 8.0).

As to `CC(=O)N[C@@H](C)C(=O)N[C@@H](CO)C(=O)N[C@@H](CCC(=O)O)C(=O)N[C@@H](CC(C)C)C(=O)N[C@@H](CO)C(=O)N[C@H](C(=O)N[C@@H](C)C(=O)N[C@@H](C)C(=O)N[C@@H](CC(C)C)C(=O)NCC(=O)N[C@@H](CCCNC(=N)N)C(=O)N[C@@H](CC(C)C)C(=O)N[C@@H](CO)C(=O)N[C@@H](C)C(=O)N[C@@H](CCC(=O)O)C(=O)N[C@@H](CC(C)C)C(=O)N[C@@H](Cc1cnc[nH]1)C(=O)N[C@@H](CCCCNC(=O)CC[C@H](NC(=O)CCCCCCCCCCCCCCCCCCC(=O)O)C(=O)O)C(=O)N[C@@H](CC(C)C)C(=O)N[C@@H](C)C(=O)N[C@H](C(=O)N[C@@H](CC(C)C)C(=O)N1CCC[C@H]1C(=O)N[C@@H](CCCNC(=N)N)C(=O)N[C@H](C(=O)N[C@@H](CCC(=O)O)C(=O)N[C@H](C(=O)NCC(=O)N[C@@H](CO)C(=O)NCC(=O)N[C@@H](CO)C(=O)N1CCC[C@H]1C(N)=O)[C@@H](C)O)[C@@H](C)O)[C@@H](C)O)[C@@H](C)O` [compound 70, [N-terminal(acetyl), des1, 19K(C20 diacid-gGlu), 30S, 31G]mimylin] (Ac-ASELSTAALGRLSAELHK([γGlu-C20 diacid])LATLPRTETGSGSP-NH2), the pIC50 in data set [1] is 10.15. For the same compound, the Solubility result in data set [2] (pH 3.0), in data set [2] (pH 4.0), in data set [2] (pH 5.0), in data set [2] (pH 6.0), in data set [2] (pH 6.5) and in data set [2] (pH 7.0) was “≧200 μM” each time. Besides, the Solubility result in data set [2] (pH 7.5) and in data set [2] (pH 8.0) was “≧200 μM” throughout.

Regarding `CC(C)C[C@H](NC(=O)[C@H](C)NC(=O)[C@H](C)NC(=O)[C@@H](NC(=O)[C@H](CO)NC(=O)[C@H](CC(C)C)NC(=O)[C@H](CCC(=O)O)NC(=O)[C@H](CO)NC(=O)[C@H](C)NC(=O)CCCCCCCCCCCCCCCCC(=O)O)[C@@H](C)O)C(=O)NCC(=O)N[C@@H](CCCNC(=N)N)C(=O)N[C@@H](CC(C)C)C(=O)N[C@@H](CO)C(=O)N[C@@H](C)C(=O)N[C@@H](CCC(=O)O)C(=O)N[C@@H](CC(C)C)C(=O)N[C@@H](Cc1cnc[nH]1)C(=O)N[C@@H](CCC(=O)O)C(=O)N[C@@H](CC(C)C)C(=O)N[C@@H](C)C(=O)N[C@H](C(=O)N[C@@H](CC(C)C)C(=O)N1CCC[C@H]1C(=O)N[C@@H](CCCNC(=N)N)C(=O)N[C@H](C(=O)N[C@@H](CCC(=O)O)C(=O)N[C@H](C(=O)NCC(=O)N[C@@H](CO)C(=O)NCC(=O)N[C@@H](CO)C(=O)N1CCC[C@H]1C(N)=O)[C@@H](C)O)[C@@H](C)O)[C@@H](C)O` [compound 48, [N-terminal(C18 diacid), des1, 30S, 31G]mimylin] ({C18 diacid}-ASELSTAALGRLSAELHELATLPRTETGSGSP-NH2), the pIC50 in data set [1] is 10.89. In addition, the Solubility entry in data set [2] (pH 3.0), in data set [2] (pH 4.0), in data set [2] (pH 5.0), in data set [2] (pH 6.0), in data set [2] (pH 6.5) and in data set [2] (pH 7.0) was “≧200 μM” in each case. Besides, the Solubility entry in data set [2] (pH 7.5) and in data set [2] (pH 8.0) was “≧200 μM” each time.

For `CC(C)C[C@H](NC(=O)[C@H](C)NC(=O)[C@H](C)NC(=O)[C@@H](NC(=O)[C@H](CO)NC(=O)[C@H](CC(C)C)NC(=O)[C@H](CCC(=O)O)NC(=O)[C@H](CO)NC(=O)[C@H](C)NC(=O)COCCOCCNC(=O)CC[C@H](NC(=O)CCCCCCCCCCCCCCCCCCC(=O)O)C(=O)O)[C@@H](C)O)C(=O)NCC(=O)N[C@@H](CCCNC(=N)N)C(=O)N[C@@H](CC(C)C)C(=O)N[C@@H](CO)C(=O)N[C@@H](C)C(=O)N[C@@H](CCC(=O)O)C(=O)N[C@@H](CC(C)C)C(=O)N[C@@H](Cc1cnc[nH]1)C(=O)N[C@@H](CCC(=O)O)C(=O)N[C@@H](CC(C)C)C(=O)N[C@@H](C)C(=O)N[C@H](C(=O)N[C@@H](CC(C)C)C(=O)N1CCC[C@H]1C(=O)N[C@@H](CCCNC(=N)N)C(=O)N[C@H](C(=O)N[C@@H](CCC(=O)O)C(=O)N[C@H](C(=O)NCC(=O)N[C@@H](CO)C(=O)NCC(=O)N[C@@H](CO)C(=O)N1CCC[C@H]1C(N)=O)[C@@H](C)O)[C@@H](C)O)[C@@H](C)O` [compound 41, [N-terminal(C20 diacid-gGlu-OEG), des1, 30S, 31G]mimylin] ({C20 diacid-γGlu-AEEA}-ASELSTAALGRLSAELHELATLPRTETGSGSP-NH2), in data set [1], the pIC50 was 10.36. Besides, the Solubility entry in data set [2] (pH 3.0), in data set [2] (pH 4.0), in data set [2] (pH 5.0), in data set [2] (pH 6.0), in data set [2] (pH 6.5) and in data set [2] (pH 7.0) was “≧200 μM” each time. Moreover, the Solubility entry in data set [2] (pH 7.5) and in data set [2] (pH 8.0) was “≧200 μM” each time.

As for `CC(C)C[C@H](NC(=O)[C@H](CO)NC(=O)[C@H](C)NC(=O)[C@@H](NC(=O)[C@H](CO)NC(=O)[C@H](CC(C)C)NC(=O)[C@H](CCC(=O)O)NC(=O)[C@H](CO)NC(=O)[C@H](C)NC(=O)CC[C@H](NC(=O)CCCCCCCCCCCCCCCCCCC(=O)O)C(=O)O)[C@@H](C)O)C(=O)NCC(=O)N[C@@H](CCCNC(=N)N)C(=O)N[C@@H](CC(C)C)C(=O)N[C@@H](CO)C(=O)N[C@@H](C)C(=O)N[C@@H](CCC(=O)O)C(=O)N[C@@H](CC(C)C)C(=O)N[C@@H](Cc1cnc[nH]1)C(=O)N[C@@H](CCC(=O)O)C(=O)N[C@@H](CC(C)C)C(=O)N[C@@H](CO)C(=O)N[C@H](C(=O)N[C@@H](Cc1ccc(O)cc1)C(=O)N1CCC[C@H]1C(=O)N[C@@H](CCCNC(=N)N)C(=O)N[C@H](C(=O)N[C@@H](CCC(=O)O)C(=O)N[C@H](C(=O)NCC(=O)N[C@@H](CO)C(=O)NCC(=O)N[C@@H](CO)C(=O)N[C@@H](Cc1ccc(O)cc1)C(N)=O)[C@@H](C)O)[C@@H](C)O)[C@@H](C)O` [compound 100, [N-terminal(C20 diacid-gGlu), des1, 9S, 21S, 23Y, 30S, 31G, 33Y]mimylin] ({C20 diacid-γGlu}-ASELSTASLGRLSAELHELSTYPRTETGSGSY-NH2), the negative logarithm of the IC50 (pIC50) in data set [1] was 10.21. Further, the Solubility result in data set [2] (pH 3.0), in data set [2] (pH 7.0), in data set [2] (pH 7.5) and in data set [2] (pH 8.0) was “≧200 μM” each time. For the same compound, the solubility at 18 h was 1 µM (≈ 3.82 µg/mL) in data set [2] (pH 5.0), 63 µM (≈ 241 µg/mL) in data set [2] (pH 6.0) and 180 µM (≈ 688 µg/mL) in data set [2] (pH 6.5).

Consider `CC(C)C[C@H](NC(=O)CNC(=O)[C@H](CO)NC(=O)[C@H](C)NC(=O)COCCOCCNC(=O)COCCOCCNC(=O)CC[C@H](NC(=O)CCCCCCCCCCCCCCCCCCC(=O)O)C(=O)O)C(=O)N[C@@H](CO)C(=O)N[C@H](C(=O)N[C@@H](C)C(=O)N[C@H](C(=O)N[C@@H](CC(C)C)C(=O)NCC(=O)N[C@@H](CCCNC(=N)N)C(=O)N[C@@H](CC(C)C)C(=O)N[C@@H](CO)C(=O)N[C@@H](CCC(N)=O)C(=O)N[C@@H](CCC(=O)O)C(=O)N[C@@H](CC(C)C)C(=O)N[C@@H](Cc1cnc[nH]1)C(=O)N[C@@H](CCC(=O)O)C(=O)N[C@@H](CC(C)C)C(=O)N[C@@H](CCC(N)=O)C(=O)N[C@H](C(=O)N[C@@H](Cc1ccc(O)cc1)C(=O)N1CCC[C@H]1C(=O)N[C@@H](CCCNC(=N)N)C(=O)N[C@H](C(=O)N[C@@H](CCC(=O)O)C(=O)N[C@H](C(=O)NCC(=O)N[C@@H](CO)C(=O)NCC(=O)N[C@H](C(=O)N[C@@H](Cc1ccc(O)cc1)C(N)=O)[C@@H](C)O)[C@@H](C)O)[C@@H](C)O)[C@@H](C)O)C(C)C)[C@@H](C)O` [compound 120, [N-terminal(C20 diacid-gGlu-2xOEG), des1, 4G, 9V, 15Q, 21Q, 23Y, 30S, 31G, 32T, 33Y]mimylin], for which the negative logarithm of the IC50 (pIC50) in data set [1] is 10.57. Further, the Solubility result in data set [2] (pH 3.0), in data set [2] (pH 4.0), in data set [2] (pH 6.0), in data set [2] (pH 6.5), in data set [2] (pH 7.0) and in data set [2] (pH 7.5) was “≧200 μM” each time. In data set [2] (pH 8.0), the Solubility result is listed as “≧200 μM”. In addition, in data set [2] (pH 5.0), the solubility at 18 h came out at 96 µM (≈ 400 µg/mL).
